Measured values reported in patent US7012085B2, “1,3 disubstituted pyrrolidines as α-2-adrenoceptor antagonists” (Novartis AG, priority 2000, dated 2006).

Assays:
[1] = tested on: loxapine-induced catalepsy; test: loxapine-induced catalepsy in rats; format: in vivo; settings: 0.3-3 mg/kg s.c.
Method: Kalkman H. O. et al., Br. J. Pharmacol. 124:1550-1556 (1998)] at doses of about 0.3 to about […] s.c.

[2] = tested on: amphetamine induced locomotion; test: amphetamine induced locomotion in rats; format: in vivo
Method: The compound or the solvent are administered at t=−30 min.

Structure (SMILES)	inhibition of catalepsy [1]	reduction of locomotion ([2]; rats, 1, 3 and 10 mg/kg s.c.)	reduction of locomotion ([2]; rats, 0.1, 0.3 and 1 mg/kg s.c.)
COc1ccccc1[C@H]1CCN(Cc2ccc3c(c2)OCCO3)C1 [(R)-1-(2,3,-dihydro-benzo-[1,4]dioxin-6-ylmethyl)-3-(2-methoxyphenyl)pyrrolidine]	long lasting, dose-dependent inhibition of catalepsy	dose-dependently reduce locomotion	
COc1ccccc1[C@H]1CCN(Cc2ccc(=O)n(C(C)C)c2)C1 [(R)-1-isopropyl-5-[3-(2-methoxyphenyl)pyrrolidin-1-ylmethyl]-1H-pyridin-2-one]	long lasting, dose-dependent inhibition of catalepsy		dose-dependently reduce locomotion
